Experimental data published in patent US6342360B1 (priority 1988, dated 2002).
Where “and” joins values, the source holds several entries; their conditions need not be identical. Equal values may be shown once. Entries after “also recorded” stand apart in the source; their conditions may differ. Read-outs that look alike come from different tables or passages of the source.

Tests used:
[1] = biological target: rat D2 dopamine receptor (Rattus norvegicus, UniProt P61169)
Experimental: (§1) The homogenizing solution was centrifuged at 800×g for 10 min. and the pellet was subjected to a second homogenization and centrifugation as before. The supernatants were pooled and centrifuged at 200,000×g for 1 hour. […] In some experiments 100 uM guanosine 5′-triphosphate was included. […] Incubations were initiated by the addition of 15-40 μg of protein, carried out at 37° C. for 50 minutes, and stopped by the addition of 10 ml of ice-cold wash buffer (10 mM Tris, pH=7.4, and 0.9% NaCl) to each assay. The samples were filtered through glass-fiber filters (Schleicher and Schuell No. 30) and washed with an additional 10 ml of wash buffer. The radioactivity retained on the filter was counted using a Beckman LS 1701 scintillation counter. Data were analyzed as previously described (29) except that curves were drawn using the data analysis program Enzfitter. The resulting IC50 values were converted to Ki values by the method of Cheng and Prusoff (30).

[2] = biological target: human dopamine D2 receptor (Homo sapiens, UniProt P14416); assay: [3H]-domperidone binding to L-hPitD2Zem membranes
Experimental: The 2.5-kb human pituitary cDNA (hPitD2) was cloned into pZem3 (a gift from Dr. E. Mulvihill, Zymogenetics) and co-transfected with the pRSVneo gene into mouse Ltk^− cells by CaPo4 precipitation (10). A stable transfectant (L-hPitD2Zem) was selected and maintained in 750 μg/ml of G418 (Geneticin sulphate, Gibco). Twenty hours prior to the harvesting of membranes, these cells were incubated with 70 μM zinc sulphate. […] For the binding assays, membrane protein was used at 10-15 μg from L-hPitD2Zem, 50-75 μg from L-RGB2Zem-1, and 220-250 μg from rat striatum. […] The filters were washed twice in ice cold 50 mM Tris-HCl, pH 7.4. […] The Bmax, Kd, and IC50 values were determined as previously described (14).

[3] = biological target: T1, dopamine-D2 receptor (Rattus norvegicus, UniProt P61169); assay: cAMP accumulation in GH4ZR7 cells
Experimental: (§2) cAMP and PRL Assay: Cells were plated in 6-well, 35 mm dishes, 3-7 days prior to experimentation. Cells were pre-incubated in 2 ml/well warm F10+0.1% (−)-ascorbic acid+20 mM Tris (pH 7.2) (FAT) for 5-10 min, followed by addition of 1 ml/well of FAT+100 μm IBMX+experimental compounds, and incubated for 30 min. at 37° C. Experimental compounds were diluted 200- to 1000-fold from stock solutions made immediately prior to assay. […] Media were collected, and the cells were lysed immediately in 1 ml of boiling water. Cell lysates and media were centrifuged (2000×g, 10 min., 4° C.), and the supernatants collected for assay as cell extracts. Cell extracts and media samples were frozen at −20° C. until assay, if not assayed immediately. cAMP was assayed by a specific radioimmunoassay as described (22), with antibody used at 1:500 dilution. After 16 h incubation at 4° C., 20 μl of 10% BSA and 1 ml of 95% ethanol were added consecutively to precipitate the antibody-antigen complex. […] PRL was assayed in the media samples obtained as described above, except that IBMX was omitted during the 30 min incubation in FAT medium. PRL levels were determined by specific radioimmunoassay using Staphyloccus A lysate (IgSorb, The Enzyme Center, Malden, Mass.) to precipitate antigen-antibody complexes (23).

[4] = biological target: T2, rat dopamine D-2 receptor (Rattus norvegicus, UniProt P61169); settings: for blockade of inhibition of adenylate cyclase by 10 μM DA: 10 μM (+)-butaclamol in assay, pertussis toxin 50 ng/ml 16 hours on cells
Experimental: Adenylate cyclase assay: The conversion of [α^32P]ATP to [^32P]cAMP was determined essentially as described by Salomon et al. (14). […] Assays were initiated by warming to 25° and terminated after 20 minutes by cooling to 0°, then adding trichloroacetic acid (100 μl of a 30% solution) to each assay. [^3H]Cyclic AMP (approximately 30,000 cpm) was added to each assay as an internal standard. The assay volume was brought up to 1 ml with water, and tubes were centrifuged for 10 min. at 2000×g. Cyclic AMP in the supernatant was isolated by sequential chromatography on columns containing Dowex AG50W-X4 resin and neutral alumina. The 2-ml eluate from each column of alumina was dissolved in 10 ml of Bio-Safe II (RPI, Mount Prospect, Ill.) for liquid scintillation counting. Dose-response curves for inhibition of adenylate cyclase activity by agonists were analyzed by nonlinear regression using the program Enzfitter. The data were fit to the equation:
where E is the amount of enzyme activity, expressed as percentage of total stimulated activity, A is the concentration of agonists, EC50 is the concentration of agonist causing half-maximal inhibition of enzyme activity, Emax is the enzyme activity observed in the presence of maximally inhibiting concentrations of agonist, expressed as the percentage of total stimulated activity, and N is a slope factor. Averages of EC50 values are the geometric means.

[5] = biological target: T2, rat dopamine D-2 receptor
Experimental: Receptor binding assay: The membrane preparation was thawed, centrifuged at 24,000×g for 20 min., and resuspended in Tris-isosaline except where indicated. […] Assays were carried out in duplicate in a volume of 2 ml for saturation analyses or 1 ml for inhibition analyses. Incubations were initiated by the addition of 15-50 μg of protein, carried out at 37° for 50 min., and stopped by the addition of 10 ml of ice-cold wash buffer (10 mM Tris, pH 7.4, and 0.9% NaCl) to each assay. The samples were filtered through glass-fibre filters (Schleicher & Schuell No. 30) and washed with an additional 10 ml of wash buffer. […] Data were analyzed by nonlinear regression using the data analysis program Enzfitter (Elsevier-Biosoft). […] Averages for KI and KD values are the geometric means. In experiments designed to assess the effect of GTP and NaCl on the binding of DA, fresh tissue was used. Cells were harvested, centrifuged, and Mg^2+ resuspended in Tris-Mg^2+ (50 mM Tris, pH 7.4, and 4 mM MgCl2). Tissue was incubated for 15 min. at 37° in this buffer before re-centrifugation.

[6] = biological target: T1, dopamine-D2 receptor; assay: Adenylate cyclase activity in membranes from GH4ZR7 cells; type: biochemical; design: Full-length dopamine-D2 cDNA (17) was excised from λGT10 with Sal I; expressed in transfected cells; settings: for efficacy: forskolin-stimulated adenylate cyclase
Experimental: Adenylate Cyclase Assay: The conversion of α^32P-ATP to ^32P-cAMP was determined essentially as described by Salomon et al. (24). […] Assays carried out in triplicate were initiated by warming to 25° C. and terminated by cooling to 0° C. Trichloroacetic acid (100 μl of 30% solution) was added to each assay, and ^3H-cAMP (30,000 cpm) was added to each tube as an internal standard. The assay volume was increased to 1 ml by addition of water, and tubes were centrifuged (2000 g×10 min). cAMP in the supernatant was isolated by sequential chromatography on columns containing Dowex AG50W-X4 resin and neutral alumina. The 2-ml eluate from each alumina columntwas dissolved in 10 ml of Bio-Safe II (RPI, Mount Prospect, Ill.) for liquid scintillation counting. Calculations: Data from cAMP and PRL assays are expressed as means±standard error for triplicate determinations. Curve-fitting parameters were obtained by nonlinear regression analysis using the Enzfitter program (Elsevier Biosoft). Average affinity, EC50 and IC50 values are geometric means of the indicated number of experiments. In competition experiments, KI values were calculated from experimentally determined IC50 values by the method of Cheng and Prusoff (25).

[7] = system: D2 dopamine receptors in rat striatal membranes; assay: 3H-spiperone binding to rat striatal membranes; settings: at the concentrations used
Experimental: as §1

[8] = biological target: T1, dopamine-D2 receptor; assay: Acute PRL release in GH4ZR7 cells; type: cell-based; design: Full-length dopamine-D2 cDNA (17) was excised from λGT10 with Sal I; expressed in transfected cells; settings: 30 min
Experimental: as §2

[9] = system: GH4C1 cells
Experimental: as §2

T1 sequence (P61169 1-415 isoform P61169-2): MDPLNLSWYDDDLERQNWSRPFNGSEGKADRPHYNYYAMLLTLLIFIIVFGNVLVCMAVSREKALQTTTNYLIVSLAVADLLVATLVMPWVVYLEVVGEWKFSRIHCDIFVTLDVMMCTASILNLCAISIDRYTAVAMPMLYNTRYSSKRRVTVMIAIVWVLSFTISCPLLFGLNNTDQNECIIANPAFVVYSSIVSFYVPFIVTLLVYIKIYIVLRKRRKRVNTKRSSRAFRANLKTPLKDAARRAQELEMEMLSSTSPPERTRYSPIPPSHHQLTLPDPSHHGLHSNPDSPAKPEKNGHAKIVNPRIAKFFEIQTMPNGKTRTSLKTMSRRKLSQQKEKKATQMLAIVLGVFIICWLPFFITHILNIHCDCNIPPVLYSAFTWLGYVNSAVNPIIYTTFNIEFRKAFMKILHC
T2 sequence (P61169 1-415 isoform P61169-2): as above
rat D2 dopamine receptor, sequence (P61169 1-415 isoform P61169-2): as above
human dopamine D2 receptor, sequence (P14416 whole entry): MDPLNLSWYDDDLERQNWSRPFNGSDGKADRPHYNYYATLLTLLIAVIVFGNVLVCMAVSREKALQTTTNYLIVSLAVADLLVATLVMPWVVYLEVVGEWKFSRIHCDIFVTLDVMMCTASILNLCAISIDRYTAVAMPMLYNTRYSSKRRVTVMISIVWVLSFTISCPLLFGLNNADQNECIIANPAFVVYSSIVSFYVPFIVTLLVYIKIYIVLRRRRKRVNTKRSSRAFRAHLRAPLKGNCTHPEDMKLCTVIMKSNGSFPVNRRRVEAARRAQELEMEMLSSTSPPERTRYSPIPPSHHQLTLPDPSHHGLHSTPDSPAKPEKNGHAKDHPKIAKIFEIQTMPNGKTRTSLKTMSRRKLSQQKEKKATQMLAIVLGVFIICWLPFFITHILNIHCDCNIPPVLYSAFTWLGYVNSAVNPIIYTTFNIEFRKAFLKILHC

O=C(c1ccc(F)cc1)C1CCN(CCn2c(=O)[nH]c3ccccc3c2=O)CC1 [ketanserin]
potency at inhibiting 3H-spiperone binding ([1]; L-RGB2Zem-1 membranes): much less potent

CN1CCN2c3ccccc3Cc3ccccc3C2C1 (centres unmarked) [mianserin]
inhibition of domperidone binding ([2]; [3H]-domperidone 1 nM): only at very high concentrations

O=C(CCCN1CCC2(CC1)C(=O)NCN2c1ccccc1)c1ccc(F)cc1 [spiperone]
blockade of dopamine inhibition of cAMP accumulation [3]: blocked dopamine action | effect of antagonist alone on basal cAMP [3]: did not alter basal cAMP levels

(+)-butaclamol
potency at inhibiting 3H-spiperone binding [1]: most potent inhibitors | blockade of inhibition of adenylate cyclase by 10 μM DA [4]: prevented

CC(C)C[C@H]1C(=O)N2CCC[C@H]2[C@]2(O)O[C@](NC(=O)[C@@H]3C=C4c5cccc6[nH]c(Br)c(c56)C[C@H]4N(C)C3)(C(C)C)C(=O)N12 [bromocriptine]
Ki ([5]; [3H]spiroperidol 0.2 nM, GTP and NaCl present, geometric mean of 2 experiments): 2.4 nM | rank among the six compounds tested ([5]; inhibition of radioligand binding, LZR1): most potent | Ki ([5]; read-out: KI for inhibition of [3H]spiroperidol binding, single experiment FIG. 9A, radioligand 230 pM): 5 nM | Ki ([5]; read-out: mean KI, 0.1 mM GTP and 120 mM NaCl, LZR1 membranes): 2 nM | Hill coefficient ([5]; single experiment FIG. 9A): 1.05 | EC50 [4]: 45 nM and 40 nM | Max (maximal inhibition of adenylate cyclase activity) [4]: 17 ± 1% | agonist activity / efficacy [4]: less efficacious than DA | inhibition of forskolin-stimulated adenylate cyclase activity [6]: 23% | maximal inhibition [6]: 23% | EC50 ([6]; read-out: EC50): 6 nM | EC50 ([6]; read-out: EC50, inhibition of adenylate cyclase): 5 nM

CCCN1CCCC(c2cccc(O)c2)C1 (single isomer, unassigned; (-)) [(−)3-PPP, 3-(3-hydroxyphenyl)-N-n-propylpiperidine]
Hill coefficient ([5]; single experiment FIG. 9A): 0.89 | efficacy [6]: did not consistently reduce

CCN1CCCC1CNC(=O)c1cc(S(N)(=O)=O)ccc1OC (single isomer, unassigned; (+)) [(+)-sulpiride]
blockade of dopamine inhibition of cAMP accumulation [3]: did not block; also recorded: little or no effect

CCN1CCCC1CNC(=O)c1cc(S(N)(=O)=O)ccc1OC (centres unmarked) [sulpiride]
share of (+)-butaclamol-displaceable binding not inhibited [7]: 10-15%

CCCN1CCCC(c2cccc(O)c2)C1 (single isomer, unassigned; (+)) [(+)3-PPP, 3-(3-hydroxyphenyl)-N-n-propylpiperidine]
efficacy [6]: as efficacious as dopamine

pertussis toxin
blockade of inhibition of adenylate cyclase by 10 μM DA [4]: blocked | forskolin-stimulated adenylate cyclase activity versus control membranes ([4]; membranes from pertussis toxin-treated cells): approximately 2.5 fold | effect of pretreatment on inhibition of basal and VIP-stimulated cAMP by dopamine ([3]; pertussis toxin 50 ng/ml, 16 h): abolished | effect of pretreatment on dopamine inhibition of forskolin-stimulated adenylate cyclase ([6]; pertussis toxin 16 h): uncoupled

VIP: vasoactive intestinal peptide
VIP-induced enhancement of cAMP levels [3]: 8-12 times basal levels | enhancement of PRL secretion [8]: 1.5 fold | total adenylate cyclase activity stimulated ([6]; 200 nM VIP, n=3): 22±7 pmol/mg protein/min

(−)-butaclamol
inhibition of domperidone binding [2]: only at very high concentrations

NCCc1ccc(O)c(O)c1 [dopamine]
effect on basal, VIP-stimulated or TRH-stimulated PRL secretion ([9]; GH4C1 cells, data not shown): no effect | effect on extracellular cAMP levels ([9]; wild-type GH4C1 cells, VIP omitted or present): no effect

CCN1CCC[C@H]1CNC(=O)c1cc(S(N)(=O)=O)ccc1OC [(−)-sulpiride]
blockade of dopamine inhibition of cAMP accumulation [3]: blocked dopamine action | effect of antagonist alone on basal cAMP ([3]; absence of dopamine): did not alter basal cAMP levels
